In ChEMBL document CHEMBL1145670, “Additional New Maytansinoids from Trewia nudiflora: 10-Epitrewiasine and Nortrewiasine” (1983):
Converted amounts (≈) assume the structure as drawn.

Experiments:
Type in all cases: functional
P388 [1] = assay: In vivo antileukemic activity against mouse P388 cells at 4 mg/kg
KB = assay: Cytotoxicity against human KB cells; details: for EC50: Homo sapiens, KB, read-out: ED50 (the source's name)
P388 [2] = assay: In vivo antileukemic activity against mouse P388 cells at 32 mg/kg
P388 [3] = assay: In vivo antileukemic activity against mouse P388 cells at 8 mg/kg
P388 [4] = assay: In vivo antileukemic activity against mouse P388 cells at 16 mg/kg

SMILES	EC50 (KB) [µg/mL]	T/C (P388 [3]) [%]	T/C (P388 [4]) [%]	ED50 (KB) [×10⁻⁴ ug/ml]	further results
COc1cc2cc(c1Cl)N1CC(=O)C(C)(O)C(=O)N(C)C(C)C(=O)O[C@@H](CC1=O)[C@]1(C)O[C@H]1[C@H](C)[C@@H]1C[C@@](O)(NC(=O)O1)[C@H](OC)/C=C/C=C(\C)C2OC (stereo partly drawn)	< 0.01				T/C (P388 [1]): 153%
COc1cc2cc(c1Cl)N(C)C(=O)C[C@H](OC(=O)[C@H](C)N(C)C(=O)C(C)C)[C@]1(C)O[C@H]1[C@H](C)[C@@H]1C[C@@](O)(NC(=O)O1)[C@@H](OC)/C=C/C=C(\C)C2OC (stereo partly drawn)	< 0.001				T/C (P388 [2]): 131%
COc1cc2cc(c1Cl)N(C)C(=O)C[C@H](OC(=O)[C@H](C)N(C)C(=O)C(C)C)[C@]1(C)O[C@H]1[C@H](C)[C@@H]1C[C@@](O)(NC(=O)O1)[C@H](OC)/C=C/C=C(\C)C2O (stereo partly drawn) [COLUBRINOL]	< 0.001				T/C (P388 [2]): 159%
C=C(C)C(=O)N(C)[C@@H](C)C(=O)O[C@H]1CC(=O)N(C)c2cc(cc(OC)c2Cl)C(OC)/C(C)=C/C=C/[C@@H](OC)[C@@]2(O)C[C@H](OC(=O)N2)[C@@H](C)[C@@H]2O[C@@]12C (stereo partly drawn) [DEHYDROTREWIASINE]	< 0.01	172			
COc1cc2cc(c1Cl)N(C)C(=O)C[C@H](OC(=O)[C@H](C)NC(=O)C(C)C)[C@]1(C)O[C@H]1[C@H](C)[C@@H]1C[C@@](O)(NC(=O)O1)[C@H](OC)/C=C/C=C(\C)C2OC (stereo partly drawn) [DEMETHYLTREWIASINE]	0.049 (≈ 0.0666 µM)	159			
COc1cc2cc(c1Cl)NC(=O)C[C@H](OC(=O)[C@H](C)N(C)C(=O)C(C)C)[C@]1(C)O[C@H]1[C@H](C)[C@@H]1C[C@@](O)(NC(=O)O1)[C@H](OC)/C=C/C=C(\C)C2OC (stereo partly drawn) [NORTREWIASINE]			155	<1	
COc1cc2cc(c1Cl)N1CCC(C)(O)C(=O)NC(C)C(=O)O[C@@H](CC1=O)[C@]1(C)O[C@H]1[C@H](C)[C@@H]1C[C@@](O)(NC(=O)O1)[C@H](OC)/C=C/C=C(\C)C2OC (stereo partly drawn) [TREFLORINE]			157	2.7	
COc1cc2cc(c1Cl)N1CC(O)C(C)(O)C(=O)NC(C)C(=O)O[C@@H](CC1=O)[C@]1(C)O[C@H]1[C@H](C)[C@@H]1C[C@@](O)(NC(=O)O1)[C@H](OC)/C=C/C=C(\C)C2OC (stereo partly drawn) [TRENUDINE]		146		6.4	
COc1cc2cc(c1Cl)N(C)C(=O)C[C@H](OC(=O)[C@H](C)N(C)C(=O)C(C)C)[C@]1(C)O[C@H]1[C@H](C)[C@@H]1C[C@@](O)(NC(=O)O1)[C@H](OC)/C=C/C=C(\C)C2OC (stereo partly drawn) [TREWIASINE]			154	2	
